Columns and labels:
[1] = test system: INS-1 cells; experiment: Nuclear levels of ICA512-CCF-GFP in INS-1 cells (nuclear extracts, confocal imaging); type: cell-based, rat; details: ICA512-GFP INS-1 cells; 60 μM calpeptin
Procedure: Cell extracts and western blotting. Wild type and transfected INS-1 cells and rat pancreatic islets (350-450) were pre-incubated for 60 minutes in resting buffer containing 0 mM glucose and 5 mM KCl and then incubated for various times in fresh resting or stimulating buffer including 25 mM glucose and 55 mM KCl, as previously described (7). The protease inhibitors calpeptin, MG-132, L-685,458 (Calbiochem, La Jolla, Calif.) were added in the last 15 minutes of the pre-incubation, and then for the entire following period before cells were harvested. Next, the cells were washed with ice cold PBS, and extracted in lysis buffer (10 mM Tris-HCl at pH 8.0, 140 mM NaCl, 1% Triton X-100, 1 mM EDTA, 1 mM PMSF, and 1% protease inhibitor cocktail (Sigma, St. Louis, Mo.) at 4° C. Cytosolic and nuclear extracts were prepared using the NE-PER Nuclear and Cytoplasmic Extraction Reagents (Pierce, Rockford, Ill.) in accordance with the manufacturer's instructions. Protein concentration was measured using the Bio-Rad Protein Assay Reagent (Bio-Rad, Hercules, Calif.). Equivalent amount of protein was separated by 8-10% SDS-PAGE, except for nuclear extracts, in which case half of the protein were loaded compared to the corresponding cytosolic extracts. […] Quantitation of protein signals was performed with the Image Gauge v3.45 software (Fuji). […]

[2] = biological target: T1, μ-calpain (Homo sapiens, UniProt P07384); type: biochemical; details: bacterially expressed ICA512 (601-979), 50 μM Ca2+, 30 μM inhibitor
T1 sequence (P07384 1-714): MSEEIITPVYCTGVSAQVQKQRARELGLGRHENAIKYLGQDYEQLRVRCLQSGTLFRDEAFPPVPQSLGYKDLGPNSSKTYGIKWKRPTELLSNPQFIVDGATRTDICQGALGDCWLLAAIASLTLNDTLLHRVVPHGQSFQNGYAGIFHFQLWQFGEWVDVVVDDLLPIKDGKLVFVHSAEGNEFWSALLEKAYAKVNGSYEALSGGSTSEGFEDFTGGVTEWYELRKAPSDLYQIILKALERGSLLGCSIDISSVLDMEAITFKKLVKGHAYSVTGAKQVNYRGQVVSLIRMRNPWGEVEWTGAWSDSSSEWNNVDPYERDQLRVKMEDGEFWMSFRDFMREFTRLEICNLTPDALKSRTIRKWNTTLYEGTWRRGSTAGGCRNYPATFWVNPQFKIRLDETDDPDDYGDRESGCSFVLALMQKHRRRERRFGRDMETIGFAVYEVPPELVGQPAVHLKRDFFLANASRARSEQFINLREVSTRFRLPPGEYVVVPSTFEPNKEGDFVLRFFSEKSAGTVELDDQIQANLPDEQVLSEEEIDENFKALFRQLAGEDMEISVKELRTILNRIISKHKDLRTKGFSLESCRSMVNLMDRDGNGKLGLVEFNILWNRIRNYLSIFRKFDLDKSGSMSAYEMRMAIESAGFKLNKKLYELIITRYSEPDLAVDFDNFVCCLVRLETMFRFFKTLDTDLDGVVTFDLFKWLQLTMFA
T1 sequence (P04632 1-268 partner): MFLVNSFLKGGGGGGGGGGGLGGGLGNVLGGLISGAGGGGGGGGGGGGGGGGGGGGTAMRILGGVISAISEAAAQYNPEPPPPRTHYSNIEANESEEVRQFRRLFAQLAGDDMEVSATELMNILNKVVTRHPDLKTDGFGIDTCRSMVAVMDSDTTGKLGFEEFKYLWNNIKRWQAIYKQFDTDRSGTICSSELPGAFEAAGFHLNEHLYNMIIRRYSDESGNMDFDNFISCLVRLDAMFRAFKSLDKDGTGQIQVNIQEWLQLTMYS
Procedure: In-vitro μ-calpain cleavage. 3 μg bacterially expressed His-ICA512 cytoplasmic domain (residues 601-979) (Ort et al., 2001) were incubated in 20 μl buffer (20 mM Tris-HCl pH 7.5, 50 μM CaCl2, 1 mM L-cysteine) at room temperature with or without 150 ng μ-calpain (Calbiochem) and 30 μM calpeptin or MG-132 for 1, 5, 15 or 45 minutes. The reactions were stopped by addition of an equal volume of 2×SDS sample buffer. Following SDS-PAGE, proteins were stained with Coomassie Blue (Bio-Rad).

CCCC[C@@H](C=O)NC(=O)[C@H](CC(C)C)NC(=O)OCc1ccccc1 [calpeptin]
enrichment of 55 kD ICA512-CCF-GFP in nuclear fractions of stimulated cells [1]: in a calpeptin-sensitive manner | Cleavage by μ-calpain [2]: inhibited

From patent US20090131309A1, “ICA512 COUPLES INSULIN SECRETION AND GENE EXPRESSION IN BETA-CELLS” (Technische Universität Dresden Medizinizche Fakultät Carl …, priority 2004, published 2009)
